COc1cc(Cc2cnc(N)nc2N)cc(OC)c1OC
solubility (mole fraction)
Settings	293.15 K	298.45 K	303.45 K	308.15 K	312.95 K	318.65 K	322.65 K
in acetonitrile	0.00035	0.000437	0.000534	0.000664	0.000809	0.00103	0.00127
in ethanol	0.00071	0.00092	0.00112	0.00134	0.00173	0.00226	0.00304
in ethyl acetate	0.000276	0.000332	0.000398	0.000481	0.000606	0.000773	0.000966
in isopropanol	0.000227	0.000294	0.000434	0.000543	0.000764	0.00106	0.00141
in water	2e-05	2.49e-05	3.02e-05	3.68e-05	4.68e-05	6.05e-05	7.14e-05

From BigSolDB 2.1
